Assays:
[1] = system: axon growth; settings: cited from earlier work
[2] = system: spinal cord injury epicenter tissue; assay: Histological analysis of the spinal cord injury epicenter (hematoxylin and eosin, solvent blue); type: in vivo, Sprague-Dawley rats
Description: FIG. 9 presents micrographs showing the overall microscopic difference in injury epicenter pathology between rats receiving tPA or vehicle in the area of residual total tissue (hematoxylin and eosin stain).
FIG. 10 presents micrographs showing the overall difference between rats receiving tPA (left panel) or vehicle (right panel) in the typical cross-sectional area of residual total white matter (WM) at the injury epicenter (e.g. WM+hypomyelinated WM). […] In contrast, SB stain in the vehicle treated spinal cord was much weaker, indicating much lower quantity presence of myelin in the tissue.
Sections were stained with solvent blue [SB]/hematoxylin and eosin as described in Teng and Wrathall, 1997.
Three days post-operatively, a second operation was conducted at T8-T9 for a bolus micro-injection of 10 μg of tPA (human two-chain tissue plasminogen activator; American Diagnostica, Inc.) reconstituted from lyophilized powder to 10 μg/10 μL) into three of the six rats. Following the bolus injection, an osmotic minipump (Alzet Model 2002: 14 day pump) (Durect Corp., Cupertino, Calif.) loaded with tPA (200 μL total volume, delivering 0.5 μL/hour, 10 μg tPA/day) was implanted at the side of injury and delivered tPA for 10 consecutive days. […]

[3] = tPA activity in the solution remaining in implanted minipumps; type: physicochemical; settings: rat body temperature; delivered from a minipump reservoir
Experimental: Three days post-operatively, a second operation was conducted at T8-T9 for a bolus micro-injection of 10 μg of tPA (human two-chain tissue plasminogen activator; American Diagnostica, Inc.) reconstituted from lyophilized powder to 10 μg/10 μL) into three of the six rats. Following the bolus injection, an osmotic minipump (Alzet Model 2002: 14 day pump) (Durect Corp., Cupertino, Calif.) loaded with tPA (200 μL total volume, delivering 0.5 μL/hour, 10 μg tPA/day) was implanted at the side of injury and delivered tPA for 10 consecutive days. At the 6th post-operative week, BDA and Fluorogold injections were made in cortex to assess the extent of corticospinal tract regrowth and reconnection, and at the 10th post-operative week, animals were perfused and their spinal cords were removed for histological analysis. Implanted minipumps were saved for analysis of tPA activity in the remaining solution.

[4] = system: dendritic spines of layer V pyramidal neurons in visual cortex slices; assay: Spine motility in acute visual cortex slices before and after enzyme application (two-photon imaging); type: cell-based, mice; settings: p28 non-deprived slices; 45 minute enzyme application; tPA 0.5 μg/mL without exogenous plasminogen, plasmin 0.2 U/mL; p<0.0001
Experimental: Two photon imaging. Mice were prepared for in vivo imaging and imaged as described previously (Majewska and Sur, 2003). Briefly, primary visual cortex was identified using stereotaxic coordinates and either a small craniotomy was drilled in this area, or the skull was thinned without making a craniotomy. Imaging was performed with a custo m-made two-photon microscope consisting of a Ti:S laser (Tsunami, Spectra-physics, Menlo Park, Calif.) pumped by a 10W solid state source (Millennia, Spectra-physics) coupled to a modified Fluoview confocal scanhead (Olympus, Melville, N.Y.). Superficial dendrites were initially identified with wide-field epi-fluorescence illumination, and were subsequently imaged using a 60×, 0.9 N.A. lens with digital zoom (5-10×). Volumetric z-stacks were typically collected with a 800×600 acquisition window with 0.5-1 μm z-steps every five minutes over two hours. […]
Z-stack images were exported to MATLAB (Mathworks, Natick, Mass.) and processed using custom algorithms. Spine motility was analyzed on two-dimensional projections in ImageJ (NIH, Bethesda, Md.), where motility was defined as the average change in spine length per unit time (Lendvai et al., 2000; Majewska and Sur, 2003). […]

[5] = system: rats with spinal cord injury (SCI); assay: Recovery of locomotor function (BBB scale) after T10 contusive spinal cord injury; type: in vivo, Sprague-Dawley rats
Description: FIGS. 8A and 8B show the effect of tPA on recovery of locomotor function graded on the BBB scale (y-axis; Basso et al., 1995 J. Neurotrauma) that ranges from 21 in normal rats to 0 in rats with complete hind limb paralysis. FIG. 8A presents a time course in which data points represent the group average±SEM (n=3/group) scored at different time points post T10 contusive injury. […] The dip of the curves starting at week 7 in both of the experimental groups was caused by the intra-cerebral cortex injections of axonal tract tracer BDA which was done at week 6 after injury. FIG. 8B presents a bar graph showing results of a second experiment in which data points represent the group average±SEM (n=7/group).
In a first set of experiments, 6 female Sprague-Dawley rats were anesthetized and spinal cord injury (SCI) was induced at TIO by using the New York University impactor with a 10 gm weight and a 12.5 mm weight drop. Behavioral tests were conducted on the first post-operative day and then weekly. The BBB (Basso, Beattie, Bresnahan) behavioral test was used to examine hind limb reflexes as well as coordinated use of the hind limbs (Basso et al., 1995; Basso, et al., 1996). This “BBB” scale has been adopted by the Multicenter Animal Spinal Cord Injury Study and by other workers in the field. […]

[6] = system: rats with middle cerebral artery occlusion (MCAO); assay: Forelimb inhibition behavioral test after middle cerebral artery occlusion (MCAO); type: in vivo; settings: intraventricular infusion 2 or 10 μg/day for 7 days, started 2 days after MCAO
Experimental: Twenty rats were trained on a battery of behavioral tasks until they achieved an asymptotic level of competence. Rats then received occlusion of the middle cerebral artery (MCAO) according to standard procedures. […] At the time of MCAO surgery, 10 of the 20 rats were also implanted with an osmotic mini-pump (Alzet model 2001, 7 day pump with […] and 1.0 μL/hour infusion) for intraventricular infusion contralateral to the site of the MCAO. The mini-pumps were filled with human two-chain tissue plasminogen activator (tPA; American Diagnostica, Inc.) at two different concentrations: 5 animals received 2 μg/day and 5 animals received 10 μg/day. tPA treatment was initiated 2 days following MCAO and was maintained for 7 days. Control and tPA-treated rats were subsequently tested weekly for behavioral recovery.
Initial results regarding one of the behavioral tests, forelimb inhibition, are striking. Normal animals rarely use their forelimbs while swimming across a test basin, a phenomenon referred to as “inhibition”. After stroke, this inhibition is reduced, so that forelimb use increases. […] On other tests, there was less difference between tPA treated animals and controls though this and other data is still being analyzed.

[7] = system: dendritic spines in visual cortex slices contralateral to the deprived eye; assay: Spine motility in visual cortex slices after monocular deprivation, followed by plasmin application (occlusion test); type: cell-based, mice
Experimental: Mice (C57/B16) expressing GFP (strain GFP-M) or YFP (strain YFP-H) in a subset of their cortical neurons (principally layer V pyramidal neurons) (Feng, G., et al., 2000) were anesthetized at postnatal days 26 or 40 and maintained in deep anesthesia using isoflurane. Monocular deprivation was performed by scoring the eyelids and then sealing them shut with tissue adhesive (Vetbond, 3M, St. Paul, Minn.). Mice were checked over the next 2-3 days to ensure that the eye remained closed. A total of 18 mice were used in the in vivo experiments (6 control, 4 deprived at p28; 4 control, 4 deprived at p42) and 24 mice were used in the slice experiments (15 control, 9 deprived).
Z-stack images were exported to MATLAB (Mathworks, Natick, Mass.) and processed using custom algorithms. Spine motility was analyzed on two-dimensional projections in ImageJ (NIH, Bethesda, Md.), where motility was defined as the average change in spine length per unit time (Lendvai et al., 2000; Majewska and Sur, 2003). Spine turnover was rarely observed in single imaging sessions. All values are presented as mean±standard error of the mean and all statistical analyses were performed using either a parametric t-test statistic for populations of monocularly deprived and control spines, or a parametric paired t-test statistic for enzymatic treatments.
Slice preparation and enzyme application. […]

increase in spine motility [4] [%] | Molecule | effective dose for influencing axon growth [1] | appearance of the contusion site, hematoxylin and eosin staining ([2]; in comparison to control) | integrity of residual white matter at the injury epicenter, solvent blue stain ([2]; versus vehicle) | time for which tPA maintains enzymatic activity [3] | final score on the BBB test ([5]; after 10 weeks of recovery, first experiment, n=3/group, 10 μg bolus then 10 μg tPA/day for 10 days by minipump, baseline 21) | BBB scores relative to control animals ([5]; second experiment, n=7/group, tPA delivered for 7 days) | forelimb use while swimming (forelimb inhibition) [6] | spine motility after additional plasmin application, superficial layers ([7]; regions where motility is already upregulated, n=88, p>0.5) | spine motility after plasmin treatment, middle regions ([7]; regions where motility is unchanged by deprivation, n=60, p<0.0001)
– | O=c1onc2cnc3ccccc3n12 [ODQ] | about 10 uM | – | – | – | – | – | – | – | –
17 | tissue plasminogen activator [tPA] | – | remarkably clean | significantly protected the integrity of the residual white matter | up to 10 days | ~9 | improved BBB scores | much less than control animals | – | –
21 | plasmin (protein, UniProt P00747 20-580; P00747 581-810, looked up, Plasmin, serine protease whose major substrate is fibrin (Sigma)) Plasmin heavy chain A: EPLDDYVNTQGASLFSVTKKQLGAGSIEECAAKCEEDEEFTCRAFQYHSKEQQCVIMAENRKSSIIIRMRDVVLFEKKVYLSECKTGNGKNYRGTMSKTKNGITCQKWSSTSPHRPRFSPATHPSEGLEENYCRNPDNDPQGPWCYTTDPEKRYDYCDILECEEECMHCSGENYDGKISKTMSGLECQAWDSQSPHAHGYIPSKFPNKNLKKNYCRNPDRELRPWCFTTDPNKRWELCDIPRCTTPPPSSGPTYQCLKGTGENYRGNVAVTVSGHTCQHWSAQTPHTHNRTPENFPCKNLDENYCRNPDGKRAPWCHTTNSQVRWEYCKIPSCDSSPVSTEQLAPTAPPELTPVVQDCYHGDGQSYRGTSSTTTTGKKCQSWSSMTPHRHQKTPENYPNAGLTMNYCRNPDADKGPWCFTTDPSVRWEYCNLKKCSGTEASVVAPPPVVLLPDVETPSEEDCMFGNGKGYRGKRATTVTGTPCQDWAAQEPHRHSIFTPETNPRAGLEKNYCRNPDGDVGGPWCYTTNPRKLYDYCDVPQCAAPSFDCGKPQVEPKKCPGR Plasmin light chain B: VVGGCVAHPHSWPWQVSLRTRFGMHFCGGTLISPEWVLTAAHCLEKSPRPSSYKVILGAHQEVNLEPHVQEIEVSRLFLEPTRKDIALLKLSSPAVITDKVIPACLPSPNYVVADRTECFITGWGETQGTFGAGLLKEAQLPVIENKVCNRYEFLNGRVQSTELCAGHLAGGTDSCQGDSGGPLVCFEKDKYILQGVTSWGLGCARPNKPGVYVRVSRFVTWIEGVMRNN | – | – | – | – | – | – | – | unaffected | significantly increased

Reference: patent US20060104969A1, “Compositions and methods for enhancing structural and functional nervous system reorganization and recovery” (Massachusetts Institute of Technology, priority 2004, published 2006)
